Measurements: article PMC11342128, “Gold(I) and gold(III) carbene complexes from the marine betaine norzooanemonin: inhibition of thioredoxin reductase, antiproliferative and antimicrobial activity” (RSC Medicinal Chemistry, 2024)
Where “and” joins values, the source holds several entries; their conditions need not be identical. Equal entries are not always repeated. Where two headings read alike, the source gives them in different places.

Tests used:
[1] = system: Acinetobacter baumannii DSM30007; assay: Antibacterial activity (MIC, curve fitting); assay type: cell-based; conditions: for MIC, A.b.: Table 2, Acinetobacter baumannii DSM30007, 18 h, 37 °C; for MIC, A. baumannii: Table S12, ± standard error of the mean
Method: (§1) The antibacterial activity of all gold complexes was assessed against six pathogenic bacterial strains, including two Gram-positive species, i.e. Enterococcus faecium and methicillin-resistant Staphylococcus aureus (MRSA), and four Gram-negative species, i.e. Acinetobacter baumannii, Escherichia coli, Klebsiella pneumoniae, and Pseudomonas aeruginosa. Minimum inhibitory concentrations (MICs) were determined using a curve-fitting technique.
(§2) S2.1. Antibacterial Studies
(§3) Bacterial cultures were prepared by overnight aerobic incubation at 37 °C. Gram-negative strains were cultivated in Müller Hinton broth supplemented with 1% glucose at pH 7.2, while Gram-positive strains were grown in Trypticase soy yeast extract medium (TSY) with a composition of 30 g/l trypticase soy broth, 3 g/l yeast extract, and pH 7.2. The cultures were adjusted to an OD600 of 0.001, resulting in a final starting OD600 of 0.0005 for the subsequent tests. For testing, 25 μL of the prepared culture was combined with 25 μL of serially diluted test compounds in 384 well plates, following established protocols for different strains. Screening was performed at compound concentrations of 0.5, 5, and 50 µM, and for selected compounds, growth inhibition curves were recorded using DMSO stock solutions […]
(§4) Positive control compounds, namely linezolid (for MRSA strains), ciprofloxacin (for E. faecium and E. coli), and amikacin (for P. aeruginosa), were included. The maximum DMSO concentration in the assay […]
(§5) After an 18-hour incubation at 37 °C under moist conditions, the optical density at 600 nm was measured using a Fusion Universal Microplate Analyser (Perkin–Elmer, Waltham, USA). The minimum inhibitory concentration (MIC) values, representing the […]
(§6) fitting with Sigma Plot. The bacterial strains used included Gram-negative strains: Escherichia coli (DSM 1116), A. baumannii (DSM30007), K. pneumoniae (DSM111678), and Pseudomonas aeruginosa PA7 (DSM 24068); and Gram-positive strains: E. faecium (DSM20477) and Staphylococcus aureus MRSA

[2] = system: Enterococcus faecium DSM20477; assay: Antibacterial activity (MIC, curve fitting); assay type: cell-based; conditions: for MIC, E.f.: Table 2, Enterococcus faecium DSM20477, 18 h, 37 °C; for MIC, E. faecium: Table S12, ± standard error of the mean
Method: as §1, §2, §3, §4, §5, §6

[3] = system: Escherichia coli DSM 1116; assay: Antibacterial activity (MIC, curve fitting); assay type: cell-based; conditions: for MIC, E.c.: Table 2, Escherichia coli DSM 1116, 18 h, 37 °C; for MIC, E. coli: Table S12, ± standard error of the mean
Method: as §1, §2, §3, §4, §5, §6

[4] = system: Klebsiella pneumoniae DSM111678; assay: Antibacterial activity (MIC, curve fitting); assay type: cell-based; conditions: for MIC, K.p.: Table 2, Klebsiella pneumoniae DSM111678, 18 h, 37 °C; for MIC, K. pneumoniae: Table S12, ± standard error of the mean
Method: as §1, §2, §3, §4, §5, §6

[5] = system: Pseudomonas aeruginosa DSM 24068; assay: Antibacterial activity (MIC, curve fitting); assay type: cell-based; conditions: for MIC, P.a.: Table 2, Pseudomonas aeruginosa DSM 24068, 18 h, 37 °C; for MIC, P. aeruginosa: Table S12, ± standard error of the mean
Method: as §1, §2, §3, §4, §5, §6

[6] = system: methicillin-resistant Staphylococcus aureus DSM 11822; assay: Antibacterial activity (MIC, curve fitting); assay type: cell-based
Method: as §1, §2, §3, §4, §5, §6

[7] = system: A549 lung carcinoma cells; set-up: method as in PMID 38205632; conditions: read-out: Antiproliferative activity IC50, A549; cited from earlier work
[8] = system: HT-29 colon carcinoma cells; set-up: method as in PMID 38205632; conditions: read-out: Antiproliferative activity IC50, HT-29; cited from earlier work
[9] = system: MCF-7 breast adenocarcinoma cells; set-up: method as in PMID 38205632; conditions: read-out: Antiproliferative activity IC50, MCF-7; cited from earlier work
[10] = system: MDA-MB-231 breast cancer cells; set-up: method as in PMID 38205632; conditions: read-out: Antiproliferative activity IC50, MDA-MB-231; cited from earlier work
TrxR from E. coli [11] = target: T1, TrxR from E. coli (Escherichia coli, UniProt P0A9P4); conditions: read-out: Inhibition of bacterial TrxR, IC50; isolated E. coli TrxR; investigated in previous report; cited from earlier work
TrxR from E. coli [12] = target: T1, TrxR from E. coli; assay: Inhibition of isolated bacterial TrxR, DTNB-based assay; assay type: biochemical; set-up: purchased Sigma-Aldrich; conditions: for TrxR activity, % of control: compounds at 0.5 µM, n = 2, Table S13
Method: The inhibition of isolated TrxR from E. coli was determined for the selected monocarbene gold(I/III) complexes 2a–c and 4b–c using a DTNB-based assay (Table 3). […] The inhibition of bacterial TrxR for compound 2a was investigated in our previous report (Table 3).
S2.3. Inhibition of bacterial TrxR from E. coli
The TrxR (E. coli) inhibition assay was performed according to previously published procedures.[8] The assay is partly based on the procedure developed by Lu et al[9] and makes use of the reduction of DTNB (5,5′-dithiobis-(2-nitrobenzoic acid)). Solutions of E. coli TrxR (10.1 U/mL) and E. coli thioredoxin (Trx) (312 μg/mL) (both purchased from Sigma-Aldrich) were prepared in distilled water. Stock solutions of the test compounds (2 mM) were prepared in DMSO and serially diluted with TE buffer (Tris-HCl 50 mM, EDTA 1 mM, pH 7.5). 20 μL of these solutions or TE buffer without the test compounds (positive control) were mixed with the TrxR solution (10 μL), the Trx solution (10 μL) and 100 µl of NADPH (200 μM) in TE buffer in a well on a 96-well plate. As a blank control, 200 μM NADPH in TE buffer (100 μL) mixed with a DMSO / buffer mixture (40 μL) was used (final concentrations of DMSO: 0.5% v/v). The plate was incubated for 75 min at 25°C with moderate shaking. After incubation, 100 μL of a reaction mixture (TE buffer containing 200 μM NADPH and 5 mM DTNB) was added to each well to initiate the reaction. After thorough mixing, the formation of 5-TNB was monitored by a microplate reader at 405 nm in 35 s intervals (10 measurements). The values were corrected by subtraction of the blank solution absorption values. The increase in concentration of 5-TNB followed a linear trend (r2≥ 0.990) and the enzymatic activities were calculated as the gradients (increase in absorbance per second) thereof. […]
for each test compound, where the highest test compound concentration was used and the enzyme solution was replaced by TE buffer. The inhibition is presented as the mean IC50 values and standard deviations obtained in three independent experiments.
Table S13. Activity of TrxR from E. coli in presence of compounds at 0.5 µM (n = 2, n.d.= not

[13] = system: A549 lung carcinoma cells; assay: Antiproliferative activity, crystal violet assay; assay type: cell-based; conditions: 72 h exposure, SD in parentheses, n = 3
Method: (§7) The antiproliferative potential of the gold–NHC complexes was determined in A549 lung carcinoma cells, MDA-MB-231 breast cancer cells, MCF-7 breast adenocarcinoma cells, and HT-29 colon carcinoma cells (Table 1). Vero E6 African green monkey kidney cells served as a reference cell line to check for possible tumour selectivity. Auranofin (AF) was used as an established reference drug.[15,17] […]
(§8) S2.2. Cytotoxicity and Anticancer Studies
(§9) Cell culture and cytotoxicity
(§10) Cell lines were sourced from DSMZ (German Collection of Microorganisms and Cell Cultures GmbH) and maintained through standard procedures in Dulbecco's Modified Eagle Medium (DMEM) supplemented with 10% fetal calf serum and 50 mg/L gentamycin. Antiproliferative effects were assessed using a well-established assay protocol. In brief, 100 μL volumes of A549 cells (13,243 cells per mL), HT-29 cells (14,657 cells per mL), MDA-MB-231 cells (6,613 cells per mL), or MCF-7 cells (6,917 cells per mL) were transferred into the wells of 96-well plates and incubated at 37°C/5% CO2 for 72 […]
(§11) Freshly prepared stock solutions of the compounds in DMSO were diluted with the respective cell culture medium to achieve graded concentrations (final concentration of DMSO: 0.1% v/v). After 72 hours (A549, HT-29) or 96 hours (MCF-7, MDA-MB-231) of exposure, the cell biomass was assessed through crystal violet staining, and the IC50 value was determined as the concentration causing 50% inhibition of cell proliferation compared to an untreated control. Results were calculated as the mean values of three independent experiments.

[14] = system: HT-29 colon carcinoma cells; assay: Antiproliferative activity, crystal violet assay; assay type: cell-based; conditions: 72 h exposure, SD in parentheses, n = 3
Method: as §7, §8, §9, §10, §11

[15] = system: MCF-7 breast adenocarcinoma cells; assay: Antiproliferative activity, crystal violet assay; assay type: cell-based; conditions: 96 h exposure, SD in parentheses, n = 3
Method: as §7, §8, §9, §10, §11

[16] = system: MDA-MB-231 breast cancer cells; assay: Antiproliferative activity, crystal violet assay; assay type: cell-based; conditions: 96 h exposure, SD in parentheses, n = 3
Method: as §7, §8, §9, §10, §11

[17] = system: Vero E6 African green monkey kidney cells; assay: Antiproliferative activity in non-tumour reference cell line; assay type: cell-based; conditions: for IC50: Vero E6 non-tumour reference cell line, SD in parentheses, n = 3
Method: as §7, §8, §9, §10, §11

[18] = Table 2, MRSA DSM 11822, 18 h, 37 °C
[19] = Table S12, ± standard error of the mean

T1 sequence (P0A9P4 2-321): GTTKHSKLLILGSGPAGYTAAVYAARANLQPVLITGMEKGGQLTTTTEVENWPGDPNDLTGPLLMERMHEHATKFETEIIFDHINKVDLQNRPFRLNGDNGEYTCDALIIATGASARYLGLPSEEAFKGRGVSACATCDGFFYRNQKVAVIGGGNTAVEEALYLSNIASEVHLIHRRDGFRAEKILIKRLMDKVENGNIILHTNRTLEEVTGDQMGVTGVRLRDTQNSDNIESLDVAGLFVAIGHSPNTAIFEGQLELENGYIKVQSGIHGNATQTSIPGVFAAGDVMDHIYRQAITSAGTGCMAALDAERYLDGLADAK

Compound | MIC, A.b. [1] | MIC, A. baumannii [1] [µM] | MIC, E.f. [2] | MIC, E. faecium [2] [µM] | MIC, E.c. [3] | MIC, E. coli [3] [µM] | MIC, K.p. [4] | MIC, K. pneumoniae [4] [µM] | MIC, P.a. [5] [µM] | MIC, P. aeruginosa [5] [µM] | MIC, MRSA [6, 18] | MIC, MRSA [6, 19] [µM] | TrxR activity, % of control (TrxR from E. coli [12]) | IC50 [13] [µM] | IC50 [14] [µM] | IC50 [15] [µM] | IC50 [16] [µM] | IC50 [17] [µM] | other results
Cn1cc(C(=O)O)[n+](C)[c]1[Au-][Cl] [2a] | 43 ± 0 µM | 42.95 ± 0 | >100 µM | > 100 | 86 ± 0 µM | 85.89 ± 0 | 43 ± 7 µM | 42.95 ± 6.75 | >100 | > 100 | >100 µM | > 100 | 94.6 % of control | – | – | – | – | – | IC50 [7]: 60 µM; IC50 [8]: 63.9 µM; IC50 [9]: 53.4 µM; IC50 [10]: 76.1 µM; IC50 (TrxR from E. coli [11]): 0.786 ± 0.118 µM
CCOC(=O)c1cn(C)[c]([Au-]([Cl])([Cl])[Cl])[n+]1C [4c] | 8 µM and 8 ± 1 µM | 8.48 ± 1.33 | 17 µM and 17 ± 0 µM | 16.97 ± 0 | 34 µM and 34 ± 0 µM | 33.93 ± 0 | 34 µM and 34 ± 5 µM | 33.93 ± 5.33 | >100 | > 100 | 17 µM and 17 ± 2 µM | 16.97 ± 2.67 | 28.5 % of control | 17.9 | 28.4 | 14.6 | 11.1 | 20.7 | IC50 (TrxR from E. coli [12]; isolated E. coli TrxR, DTNB assay, ± standard deviation, n = 3): 0.381 ± 0.053 µM
CCOC(=O)c1cn(C)[c]([Au-][c]2n(C)cc(C(=O)OCC)[n+]2C)[n+]1C.F[B-](F)(F)F [3c] | – | > 100 | – | > 100 | – | > 100 | – | > 100 | – | > 100 | – | 25.79 ± 0 | 115 % of control | 1.07 | 5.78 | 4.64 | 2.51 | 31.5 | Tumour selectivity: tumour cell lines in comparison to Vero E6 ([17]; comparison of IC50 in tumour cell lines and non-tumour Vero E6): clear preference for the tumour cell lines
